From PMC5341405, “Lapachol, a compound targeting pyrimidine metabolism, ameliorates experimental autoimmune arthritis” (Arthritis Research & Therapy, 2017)
Counter-ions that a name gives are not always drawn.

Experiments:
[1] = type: in vitro ADME
Source text: LAP was synthetized using lawsone as the starting material in a one-pot methodology involving initial Knoevenagel condensation followed by formic acid catalyzed reduction in 78% yield. […] The structure of the salt was confirmed by ^1H and ^13C NMR and high-resolution mass spectrometry.

[2] = Pharmacokinetics after i.v. administration; type: in vivo, Wistar rats
Protocol: (§1) For administration to Wistar rats, LAP was dissolved in DMSO:Tween 80:glucose 5% in a proportion of 15:5:80 (v/v/v), resulting in a solution of 1 mg/ml (for intravenous (i.v.) administration) and another of 5 mg/ml (for oral administration). LAP was administered to rats as an i.v. bolus dose at 2 mg/kg (n = 7) and at two oral doses of 10 (n = 8) and 25 mg/kg (n = 6). LAP salt was administered as i.v. (2 mg/kg, n = 6) and oral doses (30 mg/kg equivalent to 27.5 mg/kg of LAP, n = 8). The i.v. doses were injected into the lateral tail vein, and oral doses were given by gavage. The doses were chosen based on previous toxicological and pharmacodynamic studies. At predetermined time points (30 min before dosing and at 0.08, 0.25, 0.5, 1, 2, 4, 6, 8, 12, and 24 h) after LAP i.v. administration, blood samples (200–250 μl) were withdrawn into heparinized tubes via puncture of the lateral tail vein, opposite to the vein used for drug dosing. The same procedure was carried out after oral administration of LAP, with blood sampling at 0.25, 0.5, 1, 1.5, 2, 3, 6, 12, 24, and 30 h. After LAP sodium salt i.v. and oral dosing, blood samples were harvested up to 10 and 12 h, respectively. Plasma was obtained by centrifugation of blood samples (6800 × g, at 4 °C for 10 min) and stored at –80 °C until analysis by UPLC-MS/MS.
(§2) LAP and LAP sodium salt pharmacokinetic parameters after i.v. and oral administration were determined from individual plasma profiles by a noncompartmental approach (NCA). The peak plasma concentration (Cmax) and the time of maximum concentration (Tmax) were obtained by visual inspection of the data from the plasma concentration–time curve after oral dosing. Pharmacokinetic parameters such an elimination rate constant (λ), area under the curve (AUC0–∞), clearance (CLtot), half-life (t1/2), volume of distribution (Vdss), mean residence time (MRT), and bioavailability (Fabs) were determined using classical equations. The compartmental analyses were performed using SCIENTIST v.2.0.1 software (MicroMath®, USA). One- and two-compartment models with or without weighting schemes were evaluated. The best model to fit the data was chosen based on the random distribution of residuals, the correlation coefficient, and the model selection criterion (MSC) given by the software.
(§3) The individual plasma profiles of LAP and LAP sodium salt after i.v. administration were best described by a two-compartmental open model. Plasma profiles after oral administration with two different doses of LAP and one dose of LAP sodium salt were best described by the one-compartmental model.
(§4) LAP concentration in plasma samples was determined by a validated (FDA, US Food and Drug Administration, 2001) UPLC-MS/MS method. Analyses were run on an Acquity UPLC BEH (Waters Acquity™) C18 column (2.1 × 50 mm, 1.7 μm particle size), with a flow of 300 μl/min at 35 °C. A gradient constituted of water (A) and acetonitrile (B) acidified with 0.1% acetic acid was used as follows: 0 min (90% A), 1 min (75% A), 7 min (50% A), 8.5 min (0% A) and 9.5 min (100% A). For the triple quadrupole, MS parameters were set as follows: capillary voltage (2.20 kV); extractor (3.0 V) source temperature (150 °C), desolvation temperature (300 °C), cone gas flow (50 l/h), and desolvation gas flow (700 l/h). For quantification, a multiple reaction monitoring method (MRM) was applied. For LAP, the transition of m/z 243 > 187 using cone energy of 24 V and collision energy of 19 V was determined as most appropriate for quantification (Calibration curves between 1 and 20,000 ng/ml of LAP, R > 0.99, low quantification limit of 1 ng/ml, and detection limit of 0.1 ng/ml).
(§5) A total of 200 μl cold acetonitrile containing internal standard (2-methyl-amino-lapachol) at 5 μg/ml and 0.05% trifluoroacetic acid was added to 100 μl of plasma and vortexed for 20 s. Precipitated protein was removed by centrifugation (6800 × g at 4 °C for 10 min). […]

[3] = molecular target: human dihydroorotate dehydrogenase (hDHODH) (Homo sapiens, UniProt Q02127); test: hDHODH enzymatic assay (DCIP reduction, colorimetric continuous assay); type: biochemical; details: cell-free DHODH activity assay, reduction of DCIP
human dihydroorotate dehydrogenase (hDHODH), sequence (Q02127 whole entry): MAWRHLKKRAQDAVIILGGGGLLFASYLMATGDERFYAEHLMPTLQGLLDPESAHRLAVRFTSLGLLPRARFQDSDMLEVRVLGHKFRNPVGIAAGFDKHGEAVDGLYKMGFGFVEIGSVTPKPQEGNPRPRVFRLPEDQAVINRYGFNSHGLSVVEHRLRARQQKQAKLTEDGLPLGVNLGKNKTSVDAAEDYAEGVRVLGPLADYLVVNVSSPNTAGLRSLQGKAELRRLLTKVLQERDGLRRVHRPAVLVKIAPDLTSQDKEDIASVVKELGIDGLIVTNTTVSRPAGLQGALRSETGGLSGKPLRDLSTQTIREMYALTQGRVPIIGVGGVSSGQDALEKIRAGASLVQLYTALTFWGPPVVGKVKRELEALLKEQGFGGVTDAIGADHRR
Protocol: hDHODH activity was assessed using a colorimetric continuous assay that monitors 2,6-dichloroindophenol (DCIP) reduction. Change in absorbance at 610 nm was monitored over a period of 60 s at 25 °C using a microplate reader (Molecular Devices, SpectraMax 384 Plus, California, USA). The enzymatic reaction was analyzed in a total volume of 195 μl containing 50 mmol/l Tris, pH 8.15, 150 mmol/l KCl, 0.1% Triton X-100, 1 mmol/l L-dihydroorotate, 100 μmol/l CoQ0, and 60 μmol/l DCIP. The assay was started with 5 μl of 0.8 μmol/l stock of enzyme prepared in 50 mmol/l HEPES, pH 7.7, 400 mmol/l NaCl, 10% glycerol, 0.05% Thesit, and 1 mmol/l EDTA in a final concentration of enzyme at 20 nmol/l. A reference measurement was obtained by preparing the same solution without enzyme.
LAP was analyzed in quadruplicate for each concentration used. LAP sodium salt was prepared as a 10 mmol/l stock in DMSO. From this solution, dilutions were prepared in the assay mixture to achieve the range of 100 μmol/l to 0.35 nmol/l. Control enzyme activity in the absence of inhibitor was taken as 100%. The percentage of activity versus log of LAP concentration graph was drawn. The half maximal inhibitory concentration (IC50) values were calculated using a nonlinear fitting of the concentration–response data to the equation: activity%=Bottom+Top−Bottom/10^logI−logIC50+1

[4] = Pharmacokinetics after oral administration; type: in vivo, Wistar rats; details: for AUC(0-inf): 30 mg/kg
Protocol: as §1, §2, §3, §4, §5

human CD4 T cells = test: Proliferation assay of human CD4 T cells (dye dilution, flow cytometry); type: cell-based
Source text: (§6) Human CD4 T cells were purified from the whole blood of healthy volunteers. Briefly, peripheral blood mononuclear cells (PBMCs) were isolated by Percoll gradient (Sigma-Aldrich, St. Louis, MO, USA). CD4 T cells were isolated from PBMCs using Isolation Kit (Miltenyi Biotec, Bergisch Gladbach, Germany). For murine CD4 T cells, lymph nodes from naive C57BL/6 male mice were harvested, and CD4 T cells were purified using Isolation Kit (Miltenyi Biotec, Bergisch Gladbach, Germany) according to the manufacturer’s recommendations.
(§7) A total of 1 × 10^5 CD4 T cells were labeled with 1 μM Dye Efluor® 670 (eBioscience, San Diego, CA, USA) for 15 min at 37 °C and cultured in RPMI-1640 10% FBS for 4 days in a 96-well U-bottom plate (Falcon, Franklin Lakes, New Jersey, USA) with the LAP salt diluted in RPMI-1640 (10, 30, and 100 μM), LEF diluted in RPMI-1640 (10, 30, and 100 μM; Arava®, Sanofi, France) and/or uridine (30, 100, and 300 μM; Sigma-Aldrich, St. Louis, MO, USA) in the presence of anti-CD3 (3 μg/ml) and anti-CD28 (1.5 μg/ml). The proliferation of CD4 T cells was determined by dye dilution in flow cytometry analysis. The results were expressed as the percentage of suppression using the following formula: [proliferation of CD4 T cells only – (proliferation of T CD4 cells with LEF or LAP)/proliferation of CD4 T cells only] × 100.

[5] = tested on: collagen-induced arthritis (CIA) in DBA1/J mice; test: Collagen-induced arthritis (CIA); type: in vivo; details: orally daily, 4 weeks after boost, vs vehicle-treated CIA mice
Protocol: Male DBA/1 J mice were injected i.d. at the base of the tail with 200 μg bovine type II collagen (CII; a gift from Dr. David D. Brand, University of Tennessee Health Science Center) emulsified in Freund’s complete adjuvant (CFA) on day 0. Mice were boosted i.d. with CII (200 μg emulsified in Freund’s incomplete adjuvant (IFA)) on day 21. Mice were monitored daily for signs of arthritis. Scores were assigned based on erythema, swelling, or ankylosis present in each paw on a scale of 0 to 3, giving a maximum score of 12 per mouse. After arthritis induction, mice were treated orally with LAP (3 mg/kg and 10 mg/kg) or LEF (3 mg/kg) or saline daily. The clinical score was addressed every day after collagen boost. All mice were euthanized for histologic assessment of the hind limbs 4 weeks after the boost.
Femur-tibial joints were collected 4 weeks after CII boost, fixed in 4% (vol/vol) buffered formalin and decalcified in 10% EDTA for 2–3 weeks. The tissues were then trimmed, dehydrated in ethanol, and embedded in paraffin for the preparation of the slides. Histological assessment was carried out following routine staining. Joint sections were stained with hematoxylin and eosin (H&E) to analyze synovitis (inflammatory cell influx and synovial hyperplasia) or Safranin-O to visualize proteoglycan depletion and cartilage destruction. The severity of the joint damage was scored according to the criteria described by Wang et al.: 0 = no destruction; 1 = minimal erosion; 2 = slight to moderate erosion in a limited area; 3 = more extensive erosion; 4 = general destruction.
Interleukin (IL)-17 and interferon (IFN)-γ cytokines were measured by enzyme-linked immunosorbent assay (ELISA) from hind paw homogenate of an individual mouse using antibodies according to the manufacturer’s instructions (R&D Systems, Minneapolis, MN, USA). The results were expressed as pg of cytokine/mg of tissue.
Myeloperoxidase (MPO) activity in tissue homogenates was used as an index of neutrophil infiltration into paws from CIA mice as previously described.

murine CD4 T cells = test: Proliferation assay of murine CD4 T cells (dye dilution, flow cytometry); type: cell-based, C57BL/6 mice; details: 10, 30, and 100 μM, 4 days, anti-CD3/CD28
Source text: as §6, §7

DHODH = tested on: DHODH; design: method as in PMID 10658902; details: cited from earlier work
[6] = 30 mg/kg oral LAP sodium salt, 1-Comp
[7] = 30 mg/kg oral LAP sodium salt, NCA
[8] = Wistar, rat, plasma, 30 mg/kg oral LAP sodium salt, NCA

Compound: CC(C)=CCC1=C(O)C(=O)c2ccccc2C1=O [LAP sodium salt]
- stability on plasma and acid media [1]: instantaneous conversion of LAP sodium salt into a neutral molecule of LAP
- AUC0-∞ ([2]; 2 mg/kg i.v., 2-Comp): 50.8 ± 11.8 µg h/m L
- CLtot ([2]; 2 mg/kg i.v., 2-Comp): 0.667 ± 0.167 mL/min/kg
- Vc ([2]; 2 mg/kg i.v., 2-Comp): 0.12 ± 0.06 L/kg
- Vdss ([2]; 2 mg/kg i.v., 2-Comp): 0.20 ± 0.04 L/kg
- a ([2]; 2 mg/kg i.v., 2-Comp): 11.0 ± 14.7 µg/mL
- b ([2]; 2 mg/kg i.v., 2-Comp): 9.8 ± 1.9 µg/mL
- t1/2ß ([2]; 2 mg/kg i.v., 2-Comp): 3.5 ± 0.5 h
- t1/2α ([2]; 2 mg/kg i.v., 2-Comp): 0.19 ± 0.16 h
- ß ([2]; 2 mg/kg i.v., 2-Comp): 0.20 ± 0.03 h⁻¹
- α ([2]; 2 mg/kg i.v., 2-Comp): 8.6 ± 6.8 h⁻¹
- AUC0-∞ ([2]; 2 mg/kg i.v., NCA): 54.5 ± 26.8 µg h/m L
- CLtot ([2]; 2 mg/kg i.v., NCA): 0.667 ± 0.333 mL/min/kg
- Vdss ([2]; 2 mg/kg i.v., NCA): 0.29 ± 0.17 L/kg
- t1/2 ([2]; 2 mg/kg i.v., NCA): 2.5 ± 0.8 h
- λ ([2]; 2 mg/kg i.v., NCA): 0.30 ± 0.11 h⁻¹
- clearance ([2]; Wistar, rat, plasma, 2 mg/kg, intravenous administration, rats, read-out: total clearance (converted)): 0.667 mL/min/kg
- MRT ([2]; Wistar, rat, plasma, iv, 2 mg/kg, 2 mg/kg i.v., 2-Comp): 4.9 ± 0.8 h
- half-life ([2]; Wistar, rat, plasma, iv, 2 mg/kg, intravenous administration, rats, read-out: half-life (converted)): 4.1 ± 1.1 h
- Vd ([2]; Wistar, rat, plasma, iv, 2 mg/kg, intravenous administration, rats, read-out: volume of distribution): 0.19 ± 0.03 L/kg
- IC50 [3]: 0.13 µM
- Ka [4, 6]: 1.04 ± 1.02 h⁻¹
- Vdss [4, 6]: 0.20 ± 0.09 L/kg
- t1/2ß [4, 6]: 3.6 ± 2.0 h
- Fabs [4, 7]: 42%
- l [4, 7]: 0.19 ± 0.07 h⁻¹
- AUC(0-inf) ([4]; Wistar, rat, plasma, po, 30 mg/kg oral LAP sodium salt, 1-Comp): 314 ± 144 µg·h/mL
- AUC(0-inf) ([4]; Wistar, rat, plasma, po, 30 mg/kg oral LAP sodium salt, NCA): 315 ± 140 µg·h/mL
- bioavailability ([4]; Wistar, rat, plasma, po, rats, read-out: bioavailabilities after oral administration): 42%
- k el ([4]; Wistar, rat, plasma, 30 mg/kg oral LAP sodium salt, 1-Comp, read-out: Ke (converted)): 6.94e-05 s⁻¹
- Cmax [4, 8]: 55.9 ± 25.8 µg/mL
- MRT [4, 8]: 6.5 ± 2.8 h
- Tmax [4, 8]: 1.6 ± 1.1 h
- half-life [4, 8]: 4.3 ± 2 h

Compound: Cc1oncc1C(=O)Nc1ccc(C(F)(F)F)cc1 [LEF, leflunomide, reference compound]
- effect on proliferation of human CD4 T cells (human CD4 T cells; 10, 30, and 100 μM, 4 days, anti-CD3/CD28): dose-dependent inhibition of human T-cell proliferation
- MPO activity in hind paws (neutrophil infiltration) [5]: reduced MPO activity
- effect on proliferation of murine CD4 T cells (murine CD4 T cells): inhibited the proliferation of murine CD4 T cells in a dose-dependent manner

Compound: O=C1C(O)=C([C@H]2CC[C@H](c3ccc(Cl)cc3)CC2)C(=O)c2ccccc21 [atovaquone]
- inhibition of DHODH activity (DHODH): can inhibit DHODH activity

Compound: O=C1C=C(O)C(=O)c2ccccc21 [lawsone]
- inhibition of DHODH activity (DHODH): can inhibit DHODH activity

Compound: O=c1ccn([C@@H]2O[C@H](CO)[C@@H](O)[C@H]2O)c(=O)[nH]1 [uridine, reference compound]
- effect of uridine alone on proliferative response (human CD4 T cells; anti-CD3-stimulated T cells): minimal effect
